The structures appear in SMILES notation.

Broadly, the Kb is the equilibrium dissociation constant of an antagonist, usually derived from a functional assay. The low end stands for a more potent antagonist, the high end for a less potent antagonist.

For data set [1] the following is noted: background statement; cited from earlier work.
The target of another data set is T1, histamine-H2-receptors (Cavia porcellus, UniProt P47747).
T1 construct: in vitro on the isolated atrium of guinea pigs; from tissue; host or cells: isolated guinea pig atrium
Put plainly: pA2 determination of H2-antagonistic activity in vitro on the isolated atrium of guinea pigs. Conditions: isolated guinea pig atrium. From the text:
A recognized method of measuring H2 -antagonistic activity is based on determination of the pA2 -values in vitro on the isolated atrium of guinea pigs (cf. Ariens, Molecular Pharmacology, Vol. 1, Academic Press, New York, 1964).

T1 sequence (P47747 whole entry): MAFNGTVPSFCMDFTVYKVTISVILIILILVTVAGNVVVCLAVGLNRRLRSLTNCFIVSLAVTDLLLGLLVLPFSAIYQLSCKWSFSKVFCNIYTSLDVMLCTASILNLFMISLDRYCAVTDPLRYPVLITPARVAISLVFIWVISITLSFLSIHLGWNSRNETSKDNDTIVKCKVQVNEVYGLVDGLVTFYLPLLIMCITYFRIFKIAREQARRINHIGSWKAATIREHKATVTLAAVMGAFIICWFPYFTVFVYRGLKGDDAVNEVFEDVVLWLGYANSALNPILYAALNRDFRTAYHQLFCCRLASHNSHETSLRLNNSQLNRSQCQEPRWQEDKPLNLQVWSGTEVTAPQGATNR

On to `CN/C(=N/CCSCc1nc[nH]c1C)NC#N` [Cimetidine, cimetidine], for which the half life result in data set [1] is recorded as “relatively short half life”.

As to `Cc1ccc(Cc2cnc(CCCCOc3cccc(CN4CCCCC4)c3)[nH]c2=O)cn1` [Example 1, 5-(6-methylpyrid-3-ylmethyl)-2-[4-[3-(1-piperidylmethyl)-phenoxy]-butyl]-pyrimidin-4-one], the Kb on histamine-H2-receptors was 21.9 nM.
